What was measured:
Format in all cases: cell-based
[1] = molecular target: von Hippel-Lindau disease tumor suppressor/SWI/SNF-related matrix-associated actin-dependent regulator of chromatin subfamily A member 2 (Homo sapiens, UniProt P40337+P51531); assay: Protac activity at E3 ubiquitin-protein ligase/SMARCA2 in human VCaP cells assessed as SMARCA2 degradation incubated for 16 hrs by Western blot analysis relative to control
[2] = molecular target: von Hippel-Lindau disease tumor suppressor/SWI/SNF-related matrix-associated actin-dependent regulator of chromatin subfamily A member 4 (Homo sapiens, UniProt P40337+P51532); assay: Protac activity at E3 ubiquitin-protein ligase/SMARCA4 in human VCaP cells assessed as SMARCA4 degradation incubated for 16 hrs by Western blot analysis relative to control
Sequence of von Hippel-Lindau disease tumor suppressor/SWI/SNF-related matrix-associated actin-dependent regulator of chromatin subfamily A member 4 (P51532 whole entry): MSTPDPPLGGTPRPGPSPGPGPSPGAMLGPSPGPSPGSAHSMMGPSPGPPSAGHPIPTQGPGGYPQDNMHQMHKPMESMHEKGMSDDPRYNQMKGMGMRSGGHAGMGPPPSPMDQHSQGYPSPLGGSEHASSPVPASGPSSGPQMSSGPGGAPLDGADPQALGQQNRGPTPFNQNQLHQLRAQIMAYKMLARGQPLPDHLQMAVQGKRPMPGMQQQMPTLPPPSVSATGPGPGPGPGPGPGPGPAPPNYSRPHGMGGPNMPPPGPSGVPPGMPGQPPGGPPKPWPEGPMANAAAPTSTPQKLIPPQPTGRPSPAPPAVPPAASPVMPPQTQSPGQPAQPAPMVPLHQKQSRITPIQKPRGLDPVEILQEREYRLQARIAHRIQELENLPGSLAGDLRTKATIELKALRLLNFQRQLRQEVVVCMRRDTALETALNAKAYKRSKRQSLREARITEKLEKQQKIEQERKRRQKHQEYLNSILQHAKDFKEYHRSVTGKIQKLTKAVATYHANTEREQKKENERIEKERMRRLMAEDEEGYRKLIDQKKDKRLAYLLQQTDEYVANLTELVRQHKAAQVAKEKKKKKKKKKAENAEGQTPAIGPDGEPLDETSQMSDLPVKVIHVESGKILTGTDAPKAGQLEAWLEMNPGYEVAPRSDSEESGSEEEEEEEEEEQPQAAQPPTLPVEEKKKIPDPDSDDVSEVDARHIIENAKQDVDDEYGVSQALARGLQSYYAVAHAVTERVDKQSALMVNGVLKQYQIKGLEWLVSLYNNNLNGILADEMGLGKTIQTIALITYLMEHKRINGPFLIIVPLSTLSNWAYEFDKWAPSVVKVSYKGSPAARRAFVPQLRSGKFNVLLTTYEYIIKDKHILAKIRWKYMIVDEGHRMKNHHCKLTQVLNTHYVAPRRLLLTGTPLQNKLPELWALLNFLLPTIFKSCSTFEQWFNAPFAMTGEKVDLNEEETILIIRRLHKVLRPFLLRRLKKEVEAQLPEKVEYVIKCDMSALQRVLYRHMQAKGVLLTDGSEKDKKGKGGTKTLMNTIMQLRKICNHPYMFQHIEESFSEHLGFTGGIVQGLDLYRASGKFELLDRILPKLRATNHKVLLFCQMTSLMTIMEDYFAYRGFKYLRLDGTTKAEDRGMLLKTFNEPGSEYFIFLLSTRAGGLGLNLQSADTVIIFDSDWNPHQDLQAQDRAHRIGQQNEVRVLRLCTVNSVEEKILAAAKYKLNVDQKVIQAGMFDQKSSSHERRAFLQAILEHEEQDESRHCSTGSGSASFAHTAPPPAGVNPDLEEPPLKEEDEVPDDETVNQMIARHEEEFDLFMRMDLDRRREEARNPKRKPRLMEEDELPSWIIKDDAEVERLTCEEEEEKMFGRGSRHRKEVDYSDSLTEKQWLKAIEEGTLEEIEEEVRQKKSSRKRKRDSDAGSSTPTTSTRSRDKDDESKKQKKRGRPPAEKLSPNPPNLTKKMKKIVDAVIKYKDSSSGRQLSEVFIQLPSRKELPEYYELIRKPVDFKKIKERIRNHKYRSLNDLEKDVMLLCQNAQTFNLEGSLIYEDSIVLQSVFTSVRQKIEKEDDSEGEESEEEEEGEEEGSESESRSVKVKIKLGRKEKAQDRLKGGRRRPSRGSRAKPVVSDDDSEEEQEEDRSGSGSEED
Sequence of von Hippel-Lindau disease tumor suppressor/SWI/SNF-related matrix-associated actin-dependent regulator of chromatin subfamily A member 4 (P40337 whole entry): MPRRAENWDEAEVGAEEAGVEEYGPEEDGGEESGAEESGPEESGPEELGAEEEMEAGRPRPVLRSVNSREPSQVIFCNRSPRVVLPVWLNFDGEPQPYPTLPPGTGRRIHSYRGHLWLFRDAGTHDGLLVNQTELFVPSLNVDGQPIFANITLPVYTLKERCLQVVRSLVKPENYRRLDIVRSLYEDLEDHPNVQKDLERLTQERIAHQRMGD

[3] = molecular target: von Hippel-Lindau disease tumor suppressor/SWI/SNF-related matrix-associated actin-dependent regulator of chromatin subfamily A member 2 (Homo sapiens) (UniProt P51531+P40337); assay: Protac activity at E3 ubiquitin-protein ligase/SMARCA2 in human VCaP cells assessed as SMARCA2 degradation at 100 nM incubated for 16 hrs by Western blot analysis relative to control
Sequence of von Hippel-Lindau disease tumor suppressor/SWI/SNF-related matrix-associated actin-dependent regulator of chromatin subfamily A member 2 (Homo sapiens) (P40337 whole entry, looked up): as the sequence (P40337 whole entry) above
Sequence of von Hippel-Lindau disease tumor suppressor/SWI/SNF-related matrix-associated actin-dependent regulator of chromatin subfamily A member 2 (Homo sapiens) (P51531 whole entry, looked up): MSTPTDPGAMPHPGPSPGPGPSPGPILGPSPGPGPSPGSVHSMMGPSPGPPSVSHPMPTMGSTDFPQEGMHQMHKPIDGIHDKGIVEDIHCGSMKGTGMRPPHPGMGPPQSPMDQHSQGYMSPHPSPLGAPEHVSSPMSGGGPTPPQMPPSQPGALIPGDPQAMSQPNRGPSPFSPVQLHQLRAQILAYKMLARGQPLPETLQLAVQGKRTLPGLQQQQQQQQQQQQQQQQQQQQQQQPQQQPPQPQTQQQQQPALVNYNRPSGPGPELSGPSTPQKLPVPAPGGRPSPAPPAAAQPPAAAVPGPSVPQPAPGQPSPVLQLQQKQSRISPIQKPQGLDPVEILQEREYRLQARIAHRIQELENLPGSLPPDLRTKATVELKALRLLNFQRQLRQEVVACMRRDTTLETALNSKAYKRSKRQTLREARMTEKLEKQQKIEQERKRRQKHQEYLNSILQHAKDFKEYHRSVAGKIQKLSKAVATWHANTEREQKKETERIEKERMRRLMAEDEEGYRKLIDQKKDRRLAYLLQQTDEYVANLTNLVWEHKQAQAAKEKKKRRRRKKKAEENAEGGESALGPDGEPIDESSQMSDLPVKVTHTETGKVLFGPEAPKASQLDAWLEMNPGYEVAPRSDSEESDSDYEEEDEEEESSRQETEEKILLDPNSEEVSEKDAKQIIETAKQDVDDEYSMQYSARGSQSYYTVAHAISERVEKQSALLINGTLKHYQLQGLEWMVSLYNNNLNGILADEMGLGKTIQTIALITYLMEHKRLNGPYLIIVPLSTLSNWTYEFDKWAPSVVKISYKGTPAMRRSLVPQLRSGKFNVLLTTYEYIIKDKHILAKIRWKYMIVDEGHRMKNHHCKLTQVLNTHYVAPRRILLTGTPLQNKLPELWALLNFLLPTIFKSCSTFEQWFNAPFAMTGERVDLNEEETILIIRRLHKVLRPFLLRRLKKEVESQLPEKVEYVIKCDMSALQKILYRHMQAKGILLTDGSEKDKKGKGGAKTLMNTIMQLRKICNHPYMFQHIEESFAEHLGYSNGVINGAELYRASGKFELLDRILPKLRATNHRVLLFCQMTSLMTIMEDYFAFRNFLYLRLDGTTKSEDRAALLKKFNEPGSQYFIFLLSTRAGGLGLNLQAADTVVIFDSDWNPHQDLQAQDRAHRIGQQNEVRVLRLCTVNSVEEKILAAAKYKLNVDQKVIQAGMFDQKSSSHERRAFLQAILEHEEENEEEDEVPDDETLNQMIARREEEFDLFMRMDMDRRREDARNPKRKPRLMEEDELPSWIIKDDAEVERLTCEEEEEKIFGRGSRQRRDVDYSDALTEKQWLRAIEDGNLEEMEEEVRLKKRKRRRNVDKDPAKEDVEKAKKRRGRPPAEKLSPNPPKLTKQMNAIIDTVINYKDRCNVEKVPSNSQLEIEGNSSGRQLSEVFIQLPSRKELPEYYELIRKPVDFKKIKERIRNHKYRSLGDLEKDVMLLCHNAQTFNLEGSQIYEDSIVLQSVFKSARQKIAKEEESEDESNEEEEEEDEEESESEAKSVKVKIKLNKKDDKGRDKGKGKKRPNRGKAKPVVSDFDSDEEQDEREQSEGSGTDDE

[4] = molecular target: von Hippel-Lindau disease tumor suppressor/SWI/SNF-related matrix-associated actin-dependent regulator of chromatin subfamily A member 4 (Homo sapiens) (UniProt P51532+P40337); assay: Protac activity at E3 ubiquitin-protein ligase/SMARCA4 in human VCaP cells assessed as SMARCA4 degradation at 100 nM incubated for 16 hrs by Western blot analysis relative to control
Sequence of von Hippel-Lindau disease tumor suppressor/SWI/SNF-related matrix-associated actin-dependent regulator of chromatin subfamily A member 4 (Homo sapiens) (P40337 whole entry, looked up): as the sequence (P40337 whole entry) above
Sequence of von Hippel-Lindau disease tumor suppressor/SWI/SNF-related matrix-associated actin-dependent regulator of chromatin subfamily A member 4 (Homo sapiens) (P51532 whole entry, looked up): as the sequence (P51532 whole entry) above

Sequence of von Hippel-Lindau disease tumor suppressor/SWI/SNF-related matrix-associated actin-dependent regulator of chromatin subfamily A member 2 (P51531 whole entry): as the sequence (P51531 whole entry, looked up) above
Sequence of von Hippel-Lindau disease tumor suppressor/SWI/SNF-related matrix-associated actin-dependent regulator of chromatin subfamily A member 2 (P40337 whole entry): as the sequence (P40337 whole entry) above

Row | EC50 [1] [nM] | EC50 [2] [nM] | Activity [3] [%] | Activity [4] [%] | SMILES
1 | < 250 | < 250 | 97 | 40 | Cc1ncsc1-c1ccc([C@H](C)NC(=O)[C@@H]2C[C@@H](O)CN2C(=O)[C@@H](NC(=O)CC2CCN(c3ccc(-c4cnnc(-c5ccccc5O)c4)cc3)CC2)C(C)(C)C)cc1
2 |  |  | 76 | 0 | Cc1ncsc1-c1ccc([C@H](C)NC(=O)[C@@H]2C[C@@H](O)CN2C(=O)[C@@H](NC(=O)C2CCN(c3ccc(-c4cnnc(-c5ccccc5O)c4)cc3)CC2)C(C)(C)C)cc1
3 | < 250 | < 250 | 94 | 0 | Cc1ncsc1-c1ccc([C@H](C)NC(=O)[C@@H]2C[C@@H](O)CN2C(=O)[C@@H](NC(=O)CN2CCN(c3ccc(-c4cnnc(-c5ccccc5O)c4)cc3)CC2)C(C)(C)C)cc1

The remaining lines, values behind:

Row | SMILES | EC50 [1] [nM] | EC50 [2] [nM] | Activity [3] [%] | Activity [4] [%]
4 | Cc1ncsc1-c1ccc(CNC(=O)[C@@H]2C[C@@H](O)CN2C(=O)[C@@H](NC(=O)CN2CCC(c3ccc(-c4cnnc(-c5ccccc5O)c4)cc3)CC2)C(C)(C)C)cc1 |  |  | 75 | 0
5 | Cc1ncsc1-c1ccc([C@H](C)NC(=O)[C@@H]2C[C@@H](O)CN2C(=O)[C@@H](NC(=O)CN2CCC(c3ccc(-c4cnnc(-c5ccccc5O)c4)cc3)CC2)C(C)(C)C)cc1 | < 250 | < 250 | 91 | 0
6 | Cc1ncsc1-c1ccc([C@H](C)NC(=O)[C@@H]2C[C@@H](O)CN2C(=O)[C@@H](NC(=O)CN2CCN(c3ccc(-c4cnnc(-c5ccccc5O)c4)cn3)CC2)C(C)(C)C)cc1 | < 250 | < 250 | 94 | 0
